Measurements from ChEMBL document CHEMBL6114977, “Identification and optimization of a small molecule inhibitor of the ovarian tumor protease of the Crimean-Congo hemorrhagic fever virus” (Bioorg Med Chem, 2025).
Active and inactive are the calls of the source. No cut-off for these calls is given here.

Legend:
[1] = biological target: T1, RNA-directed RNA polymerase L (Crimean-Congo hemorrhagic fever virus, UniProt Q6TQR6); assay: Inhibition of CCHF OTU (ovarian tumor) protease (1 to 169 residues) extracted from Escherichia coli BL21 (DE3) cells assessed as inhibition constant by fluorescence based SynergyH1 plate reader analysis
T1 sequence (Q6TQR6 whole entry, the tested form may be a part): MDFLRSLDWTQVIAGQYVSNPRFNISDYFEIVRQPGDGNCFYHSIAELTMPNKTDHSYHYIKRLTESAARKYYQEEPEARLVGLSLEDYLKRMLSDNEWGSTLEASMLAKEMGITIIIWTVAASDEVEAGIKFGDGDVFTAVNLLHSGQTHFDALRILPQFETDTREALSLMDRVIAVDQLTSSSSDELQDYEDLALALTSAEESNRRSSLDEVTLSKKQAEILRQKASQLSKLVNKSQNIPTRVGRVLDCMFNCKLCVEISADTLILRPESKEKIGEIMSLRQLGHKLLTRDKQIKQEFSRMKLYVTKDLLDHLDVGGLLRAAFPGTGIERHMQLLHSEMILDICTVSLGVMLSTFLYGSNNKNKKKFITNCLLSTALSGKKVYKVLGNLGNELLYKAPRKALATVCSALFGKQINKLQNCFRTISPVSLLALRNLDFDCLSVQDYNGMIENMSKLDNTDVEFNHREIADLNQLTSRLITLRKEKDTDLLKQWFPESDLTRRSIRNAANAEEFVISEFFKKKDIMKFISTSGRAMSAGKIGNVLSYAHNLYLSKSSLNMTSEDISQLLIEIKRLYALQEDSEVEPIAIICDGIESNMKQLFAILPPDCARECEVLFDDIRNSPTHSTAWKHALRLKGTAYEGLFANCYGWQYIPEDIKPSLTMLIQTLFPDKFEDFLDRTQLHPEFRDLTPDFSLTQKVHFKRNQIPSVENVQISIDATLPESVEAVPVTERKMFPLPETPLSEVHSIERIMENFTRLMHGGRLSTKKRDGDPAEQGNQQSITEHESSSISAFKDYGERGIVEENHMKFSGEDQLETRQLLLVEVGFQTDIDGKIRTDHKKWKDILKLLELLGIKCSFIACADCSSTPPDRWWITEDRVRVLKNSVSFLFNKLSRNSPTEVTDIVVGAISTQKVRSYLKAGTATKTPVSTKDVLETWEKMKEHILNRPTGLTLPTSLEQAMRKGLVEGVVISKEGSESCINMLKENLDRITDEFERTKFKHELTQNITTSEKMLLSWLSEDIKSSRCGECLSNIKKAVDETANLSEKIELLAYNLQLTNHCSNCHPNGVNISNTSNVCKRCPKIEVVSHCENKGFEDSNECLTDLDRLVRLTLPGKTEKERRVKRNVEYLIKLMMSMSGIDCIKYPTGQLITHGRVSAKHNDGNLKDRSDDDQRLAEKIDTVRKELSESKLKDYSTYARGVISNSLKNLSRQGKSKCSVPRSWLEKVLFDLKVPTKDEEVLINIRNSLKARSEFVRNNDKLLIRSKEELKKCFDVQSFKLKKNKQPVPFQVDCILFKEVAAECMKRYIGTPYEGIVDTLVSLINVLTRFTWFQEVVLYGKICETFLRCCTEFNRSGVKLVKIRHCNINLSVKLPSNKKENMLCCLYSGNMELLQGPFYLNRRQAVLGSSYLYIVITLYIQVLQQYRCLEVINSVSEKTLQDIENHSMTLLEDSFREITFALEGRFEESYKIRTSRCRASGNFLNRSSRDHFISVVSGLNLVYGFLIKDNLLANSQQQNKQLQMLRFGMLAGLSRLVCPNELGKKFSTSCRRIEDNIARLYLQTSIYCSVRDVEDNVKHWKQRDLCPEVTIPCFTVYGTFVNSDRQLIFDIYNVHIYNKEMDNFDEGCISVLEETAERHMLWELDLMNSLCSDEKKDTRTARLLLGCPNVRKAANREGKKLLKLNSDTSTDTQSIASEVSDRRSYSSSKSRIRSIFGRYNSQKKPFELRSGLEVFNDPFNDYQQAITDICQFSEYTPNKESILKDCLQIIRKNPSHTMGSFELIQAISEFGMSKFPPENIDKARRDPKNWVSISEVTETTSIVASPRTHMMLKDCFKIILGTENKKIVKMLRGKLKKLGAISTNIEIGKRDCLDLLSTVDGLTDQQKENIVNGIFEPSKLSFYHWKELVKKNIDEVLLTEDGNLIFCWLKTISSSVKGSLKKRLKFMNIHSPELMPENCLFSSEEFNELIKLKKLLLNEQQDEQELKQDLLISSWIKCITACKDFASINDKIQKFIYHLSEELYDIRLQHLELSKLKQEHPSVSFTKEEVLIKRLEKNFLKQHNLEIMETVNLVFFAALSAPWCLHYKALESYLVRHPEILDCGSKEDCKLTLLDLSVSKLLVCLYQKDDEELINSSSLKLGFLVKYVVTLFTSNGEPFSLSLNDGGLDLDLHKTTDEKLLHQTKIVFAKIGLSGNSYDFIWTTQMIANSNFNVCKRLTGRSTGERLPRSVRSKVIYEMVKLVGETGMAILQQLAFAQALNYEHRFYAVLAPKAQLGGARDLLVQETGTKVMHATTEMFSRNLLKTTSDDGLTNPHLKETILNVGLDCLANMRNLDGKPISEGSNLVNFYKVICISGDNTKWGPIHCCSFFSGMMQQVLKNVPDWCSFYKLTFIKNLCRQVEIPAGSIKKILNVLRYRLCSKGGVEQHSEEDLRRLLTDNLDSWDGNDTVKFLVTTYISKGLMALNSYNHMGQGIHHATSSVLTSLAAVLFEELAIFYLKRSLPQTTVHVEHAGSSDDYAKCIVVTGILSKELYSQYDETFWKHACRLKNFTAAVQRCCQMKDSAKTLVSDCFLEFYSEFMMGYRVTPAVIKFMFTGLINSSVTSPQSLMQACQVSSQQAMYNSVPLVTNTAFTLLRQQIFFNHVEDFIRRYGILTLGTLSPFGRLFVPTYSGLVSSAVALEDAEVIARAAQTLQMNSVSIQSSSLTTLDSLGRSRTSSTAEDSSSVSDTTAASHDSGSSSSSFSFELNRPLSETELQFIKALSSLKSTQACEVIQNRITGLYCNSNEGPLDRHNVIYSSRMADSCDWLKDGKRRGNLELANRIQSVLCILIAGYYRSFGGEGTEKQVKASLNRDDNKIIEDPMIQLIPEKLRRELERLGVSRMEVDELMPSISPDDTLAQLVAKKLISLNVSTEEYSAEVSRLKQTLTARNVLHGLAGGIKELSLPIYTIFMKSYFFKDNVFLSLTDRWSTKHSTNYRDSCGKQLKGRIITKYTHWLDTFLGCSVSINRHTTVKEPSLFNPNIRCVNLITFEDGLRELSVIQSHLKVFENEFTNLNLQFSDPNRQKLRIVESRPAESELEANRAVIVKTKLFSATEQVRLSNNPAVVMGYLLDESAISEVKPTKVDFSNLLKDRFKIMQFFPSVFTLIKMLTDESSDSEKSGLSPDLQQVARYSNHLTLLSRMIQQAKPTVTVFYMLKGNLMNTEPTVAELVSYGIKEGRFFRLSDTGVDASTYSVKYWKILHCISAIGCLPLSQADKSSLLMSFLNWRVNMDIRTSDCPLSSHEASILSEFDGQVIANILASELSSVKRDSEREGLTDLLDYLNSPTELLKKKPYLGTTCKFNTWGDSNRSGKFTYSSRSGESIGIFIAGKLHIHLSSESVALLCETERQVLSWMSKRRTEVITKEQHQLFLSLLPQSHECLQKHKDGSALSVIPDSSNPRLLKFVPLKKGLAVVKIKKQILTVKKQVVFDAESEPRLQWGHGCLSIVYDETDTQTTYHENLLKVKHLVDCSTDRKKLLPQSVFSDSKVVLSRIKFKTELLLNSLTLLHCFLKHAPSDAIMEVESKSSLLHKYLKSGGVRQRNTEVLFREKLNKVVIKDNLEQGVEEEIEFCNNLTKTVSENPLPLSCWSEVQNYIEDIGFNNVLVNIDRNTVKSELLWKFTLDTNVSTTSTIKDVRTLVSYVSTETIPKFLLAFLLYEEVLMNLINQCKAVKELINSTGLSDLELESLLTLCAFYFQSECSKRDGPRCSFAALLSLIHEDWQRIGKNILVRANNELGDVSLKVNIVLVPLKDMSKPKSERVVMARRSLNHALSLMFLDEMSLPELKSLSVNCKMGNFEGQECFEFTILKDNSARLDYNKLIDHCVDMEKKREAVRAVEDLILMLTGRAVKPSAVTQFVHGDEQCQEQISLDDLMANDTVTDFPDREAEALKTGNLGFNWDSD

[2] = biological target: T1, RNA-directed RNA polymerase L; assay: (§1) Inhibition of CCHF OTU (ovarian tumor) protease (1 to 169 residues) extracted from Escherichia coli BL21 (DE3) cells using ubiquitin rhodamine 110 as substrate incubated for 30 mins by fluorescence based SynergyH1 plate reader analysis
[3] = biological target: Ubiquitin carboxyl-terminal hydrolase 7 (Homo sapiens) (UniProt Q93009); assay: Inhibition of human USP7 using ubiquitin rhodamine 110 as substrate at 50 uM incubated for 30 mins by fluorescence based SynergyH1 plate reader analysis
Chain of Ubiquitin carboxyl-terminal hydrolase 7 (Homo sapiens) (Q93009 whole entry, looked up): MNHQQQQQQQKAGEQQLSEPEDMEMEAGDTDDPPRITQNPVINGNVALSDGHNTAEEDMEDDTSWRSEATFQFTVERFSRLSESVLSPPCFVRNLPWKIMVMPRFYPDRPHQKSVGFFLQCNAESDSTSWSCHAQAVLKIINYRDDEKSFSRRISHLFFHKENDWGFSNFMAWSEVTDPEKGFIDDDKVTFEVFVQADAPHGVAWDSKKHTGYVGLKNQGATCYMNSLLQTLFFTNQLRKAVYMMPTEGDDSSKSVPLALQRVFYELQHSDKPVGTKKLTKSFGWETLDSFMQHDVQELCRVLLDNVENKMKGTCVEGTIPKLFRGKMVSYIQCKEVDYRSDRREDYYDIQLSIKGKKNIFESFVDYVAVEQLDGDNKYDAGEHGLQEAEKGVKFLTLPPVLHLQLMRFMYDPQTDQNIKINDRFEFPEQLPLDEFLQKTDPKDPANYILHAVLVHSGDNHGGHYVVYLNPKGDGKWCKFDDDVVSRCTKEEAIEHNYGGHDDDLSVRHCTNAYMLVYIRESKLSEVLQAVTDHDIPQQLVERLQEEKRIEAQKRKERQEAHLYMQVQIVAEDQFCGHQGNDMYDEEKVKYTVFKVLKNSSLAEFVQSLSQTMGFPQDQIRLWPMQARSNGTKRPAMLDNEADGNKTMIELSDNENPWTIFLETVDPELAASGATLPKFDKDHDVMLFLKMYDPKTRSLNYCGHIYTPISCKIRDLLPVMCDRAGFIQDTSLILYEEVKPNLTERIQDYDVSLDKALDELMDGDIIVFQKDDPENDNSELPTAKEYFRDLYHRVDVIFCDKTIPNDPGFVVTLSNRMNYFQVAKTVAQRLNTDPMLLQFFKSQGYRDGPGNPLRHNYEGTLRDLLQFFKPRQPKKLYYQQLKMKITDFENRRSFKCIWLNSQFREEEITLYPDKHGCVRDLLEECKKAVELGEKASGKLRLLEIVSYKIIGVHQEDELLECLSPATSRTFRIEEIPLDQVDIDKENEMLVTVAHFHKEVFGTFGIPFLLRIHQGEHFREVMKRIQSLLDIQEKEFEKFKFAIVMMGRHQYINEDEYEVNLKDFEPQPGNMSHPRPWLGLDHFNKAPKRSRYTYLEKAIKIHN

[4] = biological target: T2, Ubiquitin carboxyl-terminal hydrolase isozyme L5 (Homo sapiens) (UniProt Q9Y5K5); assay: Inhibition of human UCHL5 using ubiquitin rhodamine 110 as substrate at 50 uM incubated for 30 mins by fluorescence based SynergyH1 plate reader analysis
T2 sequence (whole entry): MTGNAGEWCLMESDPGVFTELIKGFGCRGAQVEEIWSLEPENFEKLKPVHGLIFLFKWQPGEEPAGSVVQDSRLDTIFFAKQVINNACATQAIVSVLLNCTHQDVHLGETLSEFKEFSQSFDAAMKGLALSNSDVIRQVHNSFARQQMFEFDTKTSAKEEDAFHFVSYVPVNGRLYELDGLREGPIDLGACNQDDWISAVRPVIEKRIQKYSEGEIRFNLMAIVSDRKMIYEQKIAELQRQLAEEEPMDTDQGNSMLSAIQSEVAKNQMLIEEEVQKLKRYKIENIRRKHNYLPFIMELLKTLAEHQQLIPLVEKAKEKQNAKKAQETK

[5] = biological target: T3, OTU domain-containing protein 7B (Homo sapiens) (UniProt Q6GQQ9); assay: Inhibition of human cezanne using ubiquitin rhodamine 110 as substrate at 50 uM incubated for 30 mins by fluorescence based SynergyH1 plate reader analysis
T3 sequence (whole entry): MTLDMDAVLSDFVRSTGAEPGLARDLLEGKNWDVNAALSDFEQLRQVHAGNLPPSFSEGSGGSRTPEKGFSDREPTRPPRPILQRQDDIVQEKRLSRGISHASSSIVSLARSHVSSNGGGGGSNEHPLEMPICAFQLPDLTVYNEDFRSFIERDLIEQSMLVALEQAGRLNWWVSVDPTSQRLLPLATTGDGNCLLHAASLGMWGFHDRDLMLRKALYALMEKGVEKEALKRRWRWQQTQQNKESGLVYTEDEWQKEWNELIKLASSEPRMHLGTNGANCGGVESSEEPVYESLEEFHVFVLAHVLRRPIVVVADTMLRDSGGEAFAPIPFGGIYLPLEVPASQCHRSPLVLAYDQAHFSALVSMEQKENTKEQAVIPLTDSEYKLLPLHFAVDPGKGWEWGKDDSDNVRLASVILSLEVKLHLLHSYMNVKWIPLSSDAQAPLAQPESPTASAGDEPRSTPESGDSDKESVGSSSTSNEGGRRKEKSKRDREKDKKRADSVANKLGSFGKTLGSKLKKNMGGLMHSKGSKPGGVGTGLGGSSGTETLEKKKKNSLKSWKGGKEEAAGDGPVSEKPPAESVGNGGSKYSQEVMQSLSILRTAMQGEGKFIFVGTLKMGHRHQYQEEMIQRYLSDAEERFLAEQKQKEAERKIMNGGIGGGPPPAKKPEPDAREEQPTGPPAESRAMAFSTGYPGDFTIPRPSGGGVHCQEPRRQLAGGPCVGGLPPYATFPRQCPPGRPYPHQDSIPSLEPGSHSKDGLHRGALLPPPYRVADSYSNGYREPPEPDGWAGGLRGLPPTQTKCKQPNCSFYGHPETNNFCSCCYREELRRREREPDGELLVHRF

[6] = biological target: T4, OTU domain-containing protein 1 (Homo sapiens) (UniProt Q5VV17); assay: Inhibition of human OTUD1 using ubiquitin rhodamine 110 as substrate at 50 uM incubated for 30 mins by fluorescence based SynergyH1 plate reader analysis
T4 sequence (whole entry): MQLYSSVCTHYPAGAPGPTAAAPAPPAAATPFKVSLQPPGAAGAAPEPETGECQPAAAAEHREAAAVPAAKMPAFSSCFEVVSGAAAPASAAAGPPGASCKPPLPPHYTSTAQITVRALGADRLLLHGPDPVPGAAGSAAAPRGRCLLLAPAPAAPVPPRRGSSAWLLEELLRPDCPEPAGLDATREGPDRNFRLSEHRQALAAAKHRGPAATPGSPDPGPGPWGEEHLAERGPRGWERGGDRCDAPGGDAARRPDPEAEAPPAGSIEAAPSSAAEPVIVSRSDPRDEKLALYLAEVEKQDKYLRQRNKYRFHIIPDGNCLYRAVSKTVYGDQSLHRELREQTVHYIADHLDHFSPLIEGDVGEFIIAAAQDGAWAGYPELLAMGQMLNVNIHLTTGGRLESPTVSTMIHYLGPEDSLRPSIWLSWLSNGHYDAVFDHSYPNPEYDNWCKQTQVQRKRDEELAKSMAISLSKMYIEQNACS

[7] = tested on: Fc1cc(Nc2nc(-c3ccc(C(F)(F)F)cc3)cs2)ccc1-c1nnn[nH]1; assay: Competitive inhibition of CCHF OTU (ovarian tumor) protease (1 to 169 residues) extracted from Escherichia coli BL21 (DE3) cells using ubiquitin rhodamine 110 as substrate assessed as Km by Michaelis-Menten analysis (reference value: 31.6 nM); settings: Crimean-Congo hemorrhagic fever virus
[8] = biological target: RNA-directed RNA polymerase L (Crimean-Congo hemorrhagic fever virus) (UniProt Q6TQR6); assay: as §1

Compound | Ki [1] [µM] | IC50 [2] [µM] | other results
Cc1cc(NS(=O)(=O)c2ccc(Nc3nc(-c4ccc(Br)cc4)cs3)cc2)no1 | 33.2 | 54.3 | –
FC(F)(F)c1ccc(-c2csc(Nc3ccc(-c4nnn[nH]4)cc3)n2)cc1 | 10.2 | 16.7 | inhibition [3]: Active
FC(F)(F)c1ccc(-c2csc(Nc3ccc(-c4nnn[nH]4)c(C(F)(F)F)c3)n2)cc1 | 7.8 | 12.8 | inhibition [3]: Active; inhibition [4]: Active; inhibition [5]: Active; inhibition [6]: Active
FC(F)(F)c1ccc(-c2csc(Nc3ccc(-c4nnn[nH]4)cn3)n2)cc1 | 11.1 | 18.2 | inhibition [3]: Active
Cc1cc(NS(=O)(=O)c2ccc(Nc3nc(-c4ccccn4)cs3)cc2)no1 | – | > 100 | –
FC(F)(F)c1ccc(-c2csc(Nc3ccc(-n4cnnn4)cc3)n2)cc1 | – | > 100 | –
N#Cc1ccc(Nc2nc(-c3ccc(C(F)(F)F)cc3)cs2)cc1 | – | > 100 | –
Cc1cc(NS(=O)(=O)c2ccc(Nc3nc(-c4ccc(C#N)cc4)cs3)cc2)no1 | – | > 100 | –
O=S(=O)(O)c1ccc(Nc2nc(-c3ccc(C(F)(F)F)cc3)cs2)cc1 | 25.6 | 41.8 | –
O=C(O)c1ccc(Nc2nc(-c3ccc(C(F)(F)F)cc3)cs2)cc1 | – | > 50 | –
FC(F)(F)c1ccc(-c2csc(Nc3ccc(-c4nnn[nH]4)nc3)n2)cc1 | – | > 100 | –
Fc1cc(Nc2nc(-c3ccc(C(F)(F)F)cc3)cs2)ccc1-c1nnn[nH]1 | 6.6 | 10.7 | inhibition [3]: Active; inhibition [4]: Active; inhibition [5]: Active; inhibition [6]: Active
Cc1cc(NS(=O)(=O)c2ccc(Nc3nc(-c4ccc(C(F)(F)F)cc4)cs3)cc2)no1 | 31.2 | 51 | –
COc1ccccc1-c1csc(Nc2ccc(S(=O)(=O)Nc3cc(C)on3)cc2)n1 | – | > 100 | –
CN(c1ccc(-c2nnn[nH]2)cc1)c1nc(-c2ccc(C(F)(F)F)cc2)cs1 | 11.6 | 19 | –
COc1ccc(-c2csc(Nc3ccc(S(=O)(=O)Nc4cc(C)on4)cc3)n2)cc1 | – | > 100 | –
Cc1cc(NS(=O)(=O)c2ccc(Nc3nc(-c4ccc(F)cc4)cs3)cc2)no1 | 52.7 | 86 | –
Cc1cc(NS(=O)(=O)c2ccc(Nc3nc(-c4ccccc4)cs3)cc2)no1 | – | > 100 | –
Cc1cc(-c2nnn[nH]2)ccc1Nc1nc(-c2ccc(C(F)(F)F)cc2)cs1 | 11.9 | 19.4 | inhibition [3]: Active
FC(F)(F)c1ccc(-c2coc(Nc3ccc(-c4nnn[nH]4)cc3)n2)cc1 | 11.1 | 18.2 | inhibition [3]: Active

Compound | Ki [1] [µM] | IC50 [2] [µM] | other results
Cc1cc(NS(=O)(=O)c2ccc(Nc3nc(-c4ccccc4F)cs3)cc2)no1 | – | > 100 | –
Cc1cc(NS(=O)(=O)c2ccc(Nc3nc(-c4ccc(O)cc4)cs3)cc2)no1 | – | > 100 | –
NS(=O)(=O)c1ccc(Nc2nc(-c3ccc(C(F)(F)F)cc3)cs2)cc1 | – | > 100 | –
Cc1cc(Nc2nc(-c3ccc(C(F)(F)F)cc3)cs2)ccc1-c1nnn[nH]1 | 12.2 | 20 | –
FC(F)(F)c1ccc(-c2csc(Nc3ccc(-c4nnn[nH]4)c4c3CCC4)n2)cc1 | 10.6 | 17.3 | inhibition [3]: Active
Cc1cc(NS(=O)(=O)c2ccc(Nc3nc(-c4ccc(Cl)cc4)cs3)cc2)no1 | 38.5 | 62.9 | –
Cc1cc(NS(=O)(=O)c2ccc(Nc3nc(-c4ccccc4Cl)cs3)cc2)no1 | – | > 100 | –
Cc1cc(NS(=O)(=O)c2ccc(Nc3nc(-c4cccnc4)cs3)cc2)no1 | – | > 100 | –
COc1cc(-c2nnn[nH]2)ccc1Nc1nc(-c2ccc(C(F)(F)F)cc2)cs1 | 18.2 | 29.8 | inhibition [3]: Active
O=C(O)Cc1ccc(Nc2nc(-c3ccc(C(F)(F)F)cc3)cs2)cc1 | – | > 100 | –
COc1cccc(-c2csc(Nc3ccc(S(=O)(=O)Nc4cc(C)on4)cc3)n2)c1 | – | > 100 | –
Cc1cc(NS(=O)(=O)c2ccc(Nc3nc(-c4ccc(OC(F)(F)F)cc4)cs3)cc2)no1 | – | > 100 | –
RNA-directed RNA polymerase L (Crimean-Congo hemorrhagic fever virus), Q6TQR6 | – | – | Km [7]: 0.264 µM
Cc1cc(NS(=O)(=O)c2ccc(Nc3nc(-c4ccc(O)cc4O)cs3)cc2)no1 | 25.9 | 42.3 | inhibition [8]: Dose-dependent-effect
FC(F)(F)c1ccc(-c2csc(Nc3ccc(-c4nnn[nH]4)c(Cl)c3)n2)cc1 | 7.3 | 11.9 | inhibition [3]: Active; inhibition [4]: Active; inhibition [5]: Active; inhibition [6]: Active
FC(F)(F)c1ccc(-c2ccnc(Nc3ccc(-c4nnn[nH]4)cc3)n2)cc1 | 23.5 | 38.4 | inhibition [3]: Active
Cc1cc(NS(=O)(=O)c2ccc(Nc3nc(-c4cccc(F)c4)cs3)cc2)no1 | – | > 100 | –
Cc1cc(NS(=O)(=O)c2ccc(Nc3nc(-c4ccccc4C(F)(F)F)cs3)cc2)no1 | – | > 100 | –
Cc1cc(NS(=O)(=O)c2ccc(Nc3nc(-c4cccc(C(F)(F)F)c4)cs3)cc2)no1 | – | > 100 | –
